Source: patent US20240238228A1, “COMPOSITIONS AND METHODS FOR TREATING ALLERGIES AND INFLAMMATORY CONDITIONS” (UNIVERSITY OF PITTSBURGH-OF THE COMMONWEALTH SYSTEM OF …, priority 2021, published 2024)

Assays:
peanut allergy = assay: Peanut allergy desensitization by microneedle arrays; type: in vivo, mouse; conditions: delivered with peanut antigen by microneedle arrays to sensitized mice
BMMCs [1] = assay: IgE+Ag-activated BMMCs: cytokine release (ELISA) and RNA (RT-PCR); type: cell-based, murine
Description: Mast cells were differentiated from murine bone marrow as has been described. In brief, marrow was expunged from the femurs and tibias of female mice. Cultures were maintained in complete MC/9 medium containing recombinant murine IL-3 (25 ng/mL, Peprotech) for 4-6 weeks prior to use. Peritoneal MCs (PMCs) were expanded from peritoneal washes with MC/9 medium supplemented with IL-3 (25 ng/mL) and SCF (Peprotech, 10 ng/mL) for 21 days. Purity of BMMCs and PMCs was confirmed to be greater than 95% (FIG. 8A). To initiate signaling via the FcεRI, MCs were loaded with IgE (1.0 μg/ml, clone SPE-7, Sigma) for a minimum of 1 h then crosslinked with dinitrophenyl-human serum albumin (DNP-HSA, 100 ng/mL or as indicated). NKA (either LifeTein (Summerset, NJ) or Phoenix Pharmaceuticals (Burlingham, CA)) stock solutions were prepared in tissue culture grade water (100 μM) and stored at -20° C. for a maximum of 30 days. Glyburide (Cayman Chemical) was prepared in DMSO then diluted in PBS. Calpain activity was detected from cell-free supernatants using the Calpain-Glo Protease Assay (Promega). Supernatants were incubated with substrate for 10 min prior to luminescent detection. In some experiments, glyburide or vehicle (0.1% DMSO) were added to cells 10 min prior to Ag. ELISA kits from eBioscience (IL-13), BioLegend, (TNF and IL-10) or RayBiotech (NKA) and used in accord with the manufacturer's recommendations. […] Total RNA was isolated from either MCs or murine ear tissue 3 h hours after NKA injection. Tissue was homogenized in Navy RINO tubes (Next Advance) in a Bullet Blender Storm (Next Advance). RNA was extracted per standard methods with Trizol (Invitrogen). cDNA was reversed transcribed with the Quantitech Reverse Transcription Kit (Qiagen). PCR products were amplified with Fast SybrGreen (ABI) on a StepOne Plus Cycler ([…]) using the following primers: TNF […] NO: 5), TNF […] NO: 6); IL13 […] NO: 7), IL13 […] NO: 8); IL10 […] NO: 9); IL10 […] NO: 10); Bactin […] NO: 11); Bactin […] NO: 12). Data are presented as 2^-ΔΔCT using f-actin as the housekeeping gene and normalizing to either untreated cells or naïve control mice.

atopic dermatitis = assay: MC903-induced atopic dermatitis model; type: in vivo, murine; conditions: MC903 4 nmol/ear daily, glyburide 2.5 mg/kg, i.p.
Description: Atopic dermatitis was induced by treating ears with MC903 (4 nmol/ear, daily). The contralateral ear was treated with the vehicle for MC903. Mice were treated with either glyburide (2.5 mg/kg, i.p., daily) or vehicle control. (A) Ear thickness was measured daily. (B-C) On day 11, mice were euthanized and ear tissue embedded sectioned and stained with (B) H & E to evaluate cellular infiltration or (C) Avidin (AvRho) to evaluate mast cells. […] (B-C) show representative images from 3-7 mice over two experiments.

PMCs = assay: Avidin / LAMP-1 surface staining of activated PMCs; type: cell-based, murine; set-up: percentage of LAMP-1^+ and avidin^+ PMCs: dose or concentration left out as unconfirmed
Description: MCs were collected and washed with PBS containing 0.5% BSA and 0.1% sodium azide. Non-specific binding was inhibited using FcBlock (PBS with 2.0% goat serum and 0.25 mg/mL anti-CD16/32 (clone 2.4G2, BD Biosciences). Surface staining was done with anti-CD117 eFluor450 (clone 2B8, ThermoFisher), anti-FcεRI FITC (clone MAR-1, ThermoFisher) and anti-ABCA1 Alexa Fluor 647 (clone 5A1-1422, BioRad). Cells were washed with Wash Buffer (PBS with 0.5% BSA and 0.1% sodium azide). To detect differences in granulated proteins at the cell surface, IgE-loaded MCs were activated with DNP-HSA with or without NKA in Tyrode's Buffer for 30 min, washed with Wash Buffer then stained with Avidin Alexa Fluor488 (Invitrogen, Av488, 0.8 μg/5×10^5 cells) and anti-LAMP-1 PE (clone eBio 1D48, ThermoFisher). Data were acquired on either a LSRII or a Fortessa (BD BioSciences). Analysis was performed with FlowJo v10.4 (BD Biosciences).

IL10 mRNA = IL10 mRNA in ear skin 3 h after NKA injection; type: in vivo, mouse
Description: Total RNA was isolated from either MCs or murine ear tissue 3 h hours after NKA injection. Tissue was homogenized in Navy RINO tubes (Next Advance) in a Bullet Blender Storm (Next Advance). RNA was extracted per standard methods with Trizol (Invitrogen). cDNA was reversed transcribed with the Quantitech Reverse Transcription Kit (Qiagen). PCR products were amplified with Fast SybrGreen (ABI) on a StepOne Plus Cycler ([…]) using the following primers: TNF […] NO: 5), TNF […] NO: 6); IL13 […] NO: 7), IL13 […] NO: 8); IL10 […] NO: 9); IL10 […] NO: 10); Bactin […] NO: 11); Bactin […] NO: 12). Data are presented as 2^-ΔΔCT using f-actin as the housekeeping gene and normalizing to either untreated cells or naïve control mice.

[2] = tested on: connective tissue MCs from the skin, the heart, or peritoneal MCs; conditions: cited from earlier work
BMMCs [3] = assay: β-hexosaminidase release from BMMCs; type: cell-based, murine; conditions: incubated with NKA or activated with IgE and antigen in the presence of NKA
Description: Mast cells (5×10^5-1×10^6) were loaded with IgE ([…]) for a minimum of 3 h in Tyrode's Buffer. Neurokinin A ([…]) was added with DNP-HSA (Sigma, as indicated or 100 ng/mL) for 40 min at 37 C. Cells and supernatants were collected, cell pellets were lysed in Tyrode's Buffer by freeze-thawing then incubated with p-nitrophenyl N-acetyl j-D-glucosaminide (EMB Millipore, 5 mM) dissolved in citrate buffer (0.04 M, pH 4.5) for 90 minutes. The enzymatic reaction was stopped with glycine (0.4 M, pH 10.7). Absorbance at 450 nm was read. The average percentage of b-hexosaminidase release from triplicate values was calculated as (ODsup/ODsup+ODlysate)×100(%).

[4] = IL-10 KO BMMCs (absence of autocrine IL-10)
[5] = overnight activation with IgE+Ag in the presence of NKA

Compound | allergy to peanut allergen after CPE challenge (peanut allergy) | NKA-mediated inhibition with added glyburide (BMMCs [1]; glyburide and NKA (1000 nM), BMMCs or PMCs, 20-24 h) | detectible levels of IL-10 (BMMCs [1]; glyburide, 20-24 h in culture) | levels of IL-13 (BMMCs [1]; glyburide, 20-24 h in culture) | levels of TNF (BMMCs [1]; glyburide, 20-24 h in culture) | cutaneous inflammation (atopic dermatitis) | percentage of LAMP-1^+ and avidin^+ PMCs (PMCs; IgE-activated 30 minutes) | IL10 mRNA in the skin (IL10 mRNA; MC-deficient (Mcpt5Cre^+×Rosa26DTA^+) mice) | IL10 mRNA levels in the skin (IL10 mRNA; MC-sufficient (Mcpt5Cre^−×Rosa26DTA^+) mice) | IL10 RNA (BMMCs [1]; 60 min after activation) | IL13 transcription (BMMCs [1]; 60 min after activation) | TNF transcription (BMMCs [1]; 60 min after activation) | IL-13 release (BMMCs [1]; [4]) | TNF release (BMMCs [1]; [4]) | IL-13 release (BMMCs [1]; [5]) | TNF release (BMMCs [1]; [5]) | IL-10 protein in supernatants (BMMCs [1]; overnight culture with NKA) | histamine release [2] | β-hexosaminidase release (BMMCs [3]) | percentage of avidin^+ and LAMP-1V PMCs (PMCs; 30 min after activation, compared to control)
COc1ccc(Cl)cc1C(=O)NCCc1ccc(S(=O)(=O)NC(=O)NC2CCCCC2)cc1 [glyburide, reference compound] | desensitizes | did not further increase | increased | decreased | decreased | reduces cutaneous inflammation | reduced the percentage | – | – | – | – | – | – | – | – | – | – | – | – | –
Neurokinin A [NKA] | – | – | – | – | – | – | – | no difference | significantly increased | increased | inhibited | inhibited | did not inhibit | did not inhibit | inhibited | inhibited | significant increase | not | no difference | reduced the percentage
